Tested on: neuropathic pain
Assay: oral administration to a patient with neuropathic pain
Assay type: in vivo, human
Settings: one patient, 10 mg orally once daily for weight loss; pain returned on discontinuation, disappeared again on re-administration
Method: Sibutramine 10 mg was administered orally once daily for weight loss to a patient who also had neuropathic pain. The neuropathic pain disappeared. Therapy with sibutramine was discontinued and the neuropathic pain returned. When sibutramine was then administered again, the neuropathic pain disappeared.

## CC(C)CC(N(C)C)C1(c2ccc(Cl)cc2)CCC1 (stereo not shown) [Sibutramine, N,N-dimethyl-1-[1-(4-chlorophenyl)cyclobutyl]-3-methylbutylamine]
  neuropathic pain: disappeared

From patent US6803387B1, “Treatment of neuropathic pain or fibromyalgia” (Abbott GmbH & Co. KG, priority 1999, dated 2004)
